One series has as its target LeTx (Bacillus anthracis, UniProt P13423). Conditions: raw 264.7 cells.
Series [1] deals with T1, α-HL (Staphylococcus aureus, UniProt P09616).
For series [2], the target named is T1, α-HL. The series is classed as biochemical. Conditions: read-out: Inhibition of trans-membrane conductance IC50.
The next series has as its target ε-toxin (Clostridium perfringens, UniProt Q02307).
The conditions of series [3]: rat, in vivo; cited from earlier work.

Read-outs that look alike come from different tables or passages of the source.

Here are results for 9 compounds from patent US20120277184A1 (priority 2004, published 2012).

T1 sequence (P09616 27-319 limits assumed): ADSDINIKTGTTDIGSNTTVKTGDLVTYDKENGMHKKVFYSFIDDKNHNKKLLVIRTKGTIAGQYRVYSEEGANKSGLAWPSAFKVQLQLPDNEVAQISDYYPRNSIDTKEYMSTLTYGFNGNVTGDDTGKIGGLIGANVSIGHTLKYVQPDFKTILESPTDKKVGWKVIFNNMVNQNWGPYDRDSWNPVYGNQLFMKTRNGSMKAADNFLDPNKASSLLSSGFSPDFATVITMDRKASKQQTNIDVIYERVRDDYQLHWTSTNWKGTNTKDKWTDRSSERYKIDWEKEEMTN
Chain of ε-toxin (Q02307 46-306 limits assumed): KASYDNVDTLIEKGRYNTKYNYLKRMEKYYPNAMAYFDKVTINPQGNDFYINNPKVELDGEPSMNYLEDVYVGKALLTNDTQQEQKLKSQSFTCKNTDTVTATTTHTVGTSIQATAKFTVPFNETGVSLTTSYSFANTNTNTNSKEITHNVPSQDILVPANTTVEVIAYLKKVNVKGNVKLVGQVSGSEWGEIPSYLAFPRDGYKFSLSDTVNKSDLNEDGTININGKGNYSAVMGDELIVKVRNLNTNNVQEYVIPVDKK
Chain of LeTx (P13423 197-764 limits assumed): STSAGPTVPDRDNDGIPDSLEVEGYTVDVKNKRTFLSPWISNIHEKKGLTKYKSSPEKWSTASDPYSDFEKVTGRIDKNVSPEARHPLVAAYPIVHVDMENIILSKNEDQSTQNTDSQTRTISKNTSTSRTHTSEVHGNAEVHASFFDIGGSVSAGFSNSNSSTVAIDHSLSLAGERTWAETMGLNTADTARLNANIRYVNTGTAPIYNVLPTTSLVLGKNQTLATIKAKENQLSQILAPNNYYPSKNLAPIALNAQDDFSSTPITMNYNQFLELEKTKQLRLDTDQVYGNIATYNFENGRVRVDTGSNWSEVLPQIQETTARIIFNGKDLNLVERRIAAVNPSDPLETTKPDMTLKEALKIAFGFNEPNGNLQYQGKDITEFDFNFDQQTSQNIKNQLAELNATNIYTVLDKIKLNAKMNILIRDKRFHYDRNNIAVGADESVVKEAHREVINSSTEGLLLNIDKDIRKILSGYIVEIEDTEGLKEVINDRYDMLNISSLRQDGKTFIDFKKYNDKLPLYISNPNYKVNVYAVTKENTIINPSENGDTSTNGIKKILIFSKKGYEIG

As to `Cc1ccc(CNC[C@H]2O[C@@H]3O[C@H]4[C@H](O)[C@@H](O)[C@@H](O[C@H]5[C@H](O)[C@@H](O)[C@@H](O[C@H]6[C@H](O)[C@@H](O)[C@@H](O[C@H]7[C@H](O)[C@@H](O)[C@@H](O[C@H]8[C@H](O)[C@@H](O)[C@@H](O[C@H]9[C@H](O)[C@@H](O)[C@@H](O[C@H]2[C@H](O)[C@H]3O)O[C@@H]9CNCc2ccc(C)cc2)O[C@@H]8CNCc2ccc(C)cc2)O[C@@H]7CNCc2ccc(C)cc2)O[C@@H]6CNCc2ccc(C)cc2)O[C@@H]5CNCc2ccc(C)cc2)O[C@@H]4CNCc2ccc(C)cc2)cc1` [Compound 8], at LeTx, half-maximal inhibition (IC50) was put at 0.5 ± 0.2 µM.

Take `O[C@@H]1[C@@H](O)[C@H]2O[C@H]3[C@H](O)[C@@H](O)[C@@H](O[C@H]4[C@H](O)[C@@H](O)[C@@H](O[C@H]5[C@H](O)[C@@H](O)[C@@H](O[C@H]6[C@H](O)[C@@H](O)[C@@H](O[C@H]7[C@H](O)[C@@H](O)[C@@H](O[C@H]8[C@H](O)[C@@H](O)[C@@H](O[C@@H]1[C@@H](CNCc1ccc(Cl)cc1)O2)O[C@@H]8CNCc1ccc(Cl)cc1)O[C@@H]7CNCc1ccc(Cl)cc1)O[C@@H]6CNCc1ccc(Cl)cc1)O[C@@H]5CNCc1ccc(Cl)cc1)O[C@@H]4CNCc1ccc(Cl)cc1)O[C@@H]3CNCc1ccc(Cl)cc1` [Compound 9]: on LeTx, the IC50 was determined as 5.4 ± 0.8 µM.

As to `O[C@@H]1[C@@H](O)[C@H]2O[C@H]3[C@H](O)[C@@H](O)[C@@H](O[C@H]4[C@H](O)[C@@H](O)[C@@H](O[C@H]5[C@H](O)[C@@H](O)[C@@H](O[C@H]6[C@H](O)[C@@H](O)[C@@H](O[C@H]7[C@H](O)[C@@H](O)[C@@H](O[C@H]8[C@H](O)[C@@H](O)[C@@H](O[C@@H]1[C@@H](CNCc1ccc(Br)cc1)O2)O[C@@H]8CNCc1ccc(Br)cc1)O[C@@H]7CNCc1ccc(Br)cc1)O[C@@H]6CNCc1ccc(Br)cc1)O[C@@H]5CNCc1ccc(Br)cc1)O[C@@H]4CNCc1ccc(Br)cc1)O[C@@H]3CNCc1ccc(Br)cc1` [Compound 10], on α-HL [1], the “Inhibition of α-HL hemolytic activity (in words)” value is “did not display any activity”. Besides, the 50% inhibitory concentration (IC50) against α-HL [1] (erythrocytes) is more than 100 µM.

Consider `CC(C)(C)OC(=O)NC(CCCN)C(=O)NCC1OC2OC3C(CNC(=O)C(CCCN)NC(=O)OC(C)(C)C)OC(OC4C(CNC(=O)C(CCCN)NC(=O)OC(C)(C)C)OC(OC5C(CNC(=O)C(CCCN)NC(=O)OC(C)(C)C)OC(OC6C(CNC(=O)C(CCCN)NC(=O)OC(C)(C)C)OC(OC7C(CNC(=O)C(CCCN)NC(=O)OC(C)(C)C)OC(OC8C(CNC(=O)C(CCCN)NC(=O)OC(C)(C)C)OC(OC1C(O)C2O)C(O)C8O)C(O)C7O)C(O)C6O)C(O)C5O)C(O)C4O)C(O)C3O` (stereo not shown) [Compound 11], for which the IC50 at α-HL [2] was approximately 0.05 µM. Further, at α-HL [1], the half-inhibitory concentration (IC50) was found to be 3.3 µM and the “Inhibition of α-HL hemolytic activity (in words)” value is “inhibits α-HL”.

Regarding `CC(C)(C)OC(=O)NC(CCCN)C(=O)NCC1OC2OC3C(CNC(=O)C(CCCN)NC(=O)OC(C)(C)C)OC(OC4C(CNC(=O)C(CCCN)NC(=O)OC(C)(C)C)OC(OC5C(CNC(=O)C(CCCN)NC(=O)OC(C)(C)C)OC(OC6C(CNC(=O)C(CCCN)NC(=O)OC(C)(C)C)OC(OC7C(CNC(=O)C(CCCN)NC(=O)OC(C)(C)C)OC(OC8C(CNC(=O)C(CCCN)NC(=O)OC(C)(C)C)OC(OC9C(CNC(=O)C(CCCN)NC(=O)OC(C)(C)C)OC(OC1C(O)C2O)C(O)C9O)C(O)C8O)C(O)C7O)C(O)C6O)C(O)C5O)C(O)C4O)C(O)C3O` (stereo not shown) [Compound 12], the IC50 at α-HL [1] was more than 100 µM.

Turning to `Cc1ccc(CNCC2OC3OC4C(CNCc5ccc(C)cc5)OC(OC5C(CNCc6ccc(C)cc6)OC(OC6C(CNCc7ccc(C)cc7)OC(OC7C(CNCc8ccc(C)cc8)OC(OC8C(CNCc9ccc(C)cc9)OC(OC9C(CNCc%10ccc(C)cc%10)OC(OC2C(O)C3O)C(O)C9O)C(O)C8O)C(O)C7O)C(O)C6O)C(O)C5O)C(O)C4O)cc1` (stereo not shown) [Compound 5105], at ε-toxin, the midpoint of inhibition, the IC50, lay at 20 ± 10 µM and the “Inhibition of ε-toxin cytotoxicity / protection of MDCK cells (in words)” value is given as “protection”.

As for `OC1C2OC(CNCc3ccc(Cl)cc3)C(OC3OC(CNCc4ccc(Cl)cc4)C(OC4OC(CNCc5ccc(Cl)cc5)C(OC5OC(CNCc6ccc(Cl)cc6)C(OC6OC(CNCc7ccc(Cl)cc7)C(OC7OC(CNCc8ccc(Cl)cc8)C(OC8OC(CNCc9ccc(Cl)cc9)C(O2)C(O)C8O)C(O)C7O)C(O)C6O)C(O)C5O)C(O)C4O)C(O)C3O)C1O` (stereo not shown) [Compound 5130], at ε-toxin, the half-inhibitory concentration (IC50) came to 21 ± 9 µM.

`OC1C2OC(CNCc3ccc(Br)cc3)C(OC3OC(CNCc4ccc(Br)cc4)C(OC4OC(CNCc5ccc(Br)cc5)C(OC5OC(CNCc6ccc(Br)cc6)C(OC6OC(CNCc7ccc(Br)cc7)C(OC7OC(CNCc8ccc(Br)cc8)C(OC8OC(CNCc9ccc(Br)cc9)C(O2)C(O)C8O)C(O)C7O)C(O)C6O)C(O)C5O)C(O)C4O)C(O)C3O)C1O` (stereo not shown) [Compound 5137]: the IC50 against ε-toxin came out at 20 ± 1 µM.

Take β-cyclodextrin [β-CD]: the Bioavailability in series [3] is listed as 0.1-4%.

A word on the IC50: it is the concentration needed to halve the response being measured.
